# Data reported in patent publication US5876694A, “Azavesamicols” (priority 1997, dated 1999).
# Like-named read-outs stand apart in the source and are kept apart here.
# Experiments:
# Assay type in all cases: in vivo, male Wistar rats
# vesamicol receptor [1] = experiment: Ex vivo autoradiography of rat brain; conditions: 3 hrs after iv
# Procedure: Ex-vivo Autoradiographic Studies
# Two groups of male Wistar rats (n=2) were used in these experiments. Each animal in the first group received an i.v. injection of (+)-[^125 I]12h (385 uCi in 0.1/ml of 50% aq. EtOH). Similarly, animals in the second group received 330 uCi of (-)-[^125 I]12h (in 0.1 ml of 50% aq. EtOH). After 3 hrs, the animals were sacrificed by decapitation. The brains were carefully removed, embedded in Tissue Tek OCT medium and frozen to […] Twenty micron thick coronal brain slices were subsequently obtained by sectioning rostrocaudally with a Reichert HistoSTAT microtome at -15°. The tissue sections were apposed to Kodak NMC film accompanied by ^125 I-labeled external standards (^125 I-Microscales from Amersham). For delineation of cytoarchitecture, adjacent tissue sections were subjected to Nissl staining.
# vesamicol receptor [2] = experiment: Blocking experiment 2: effect of vesamicol pretreatment on radiotracer accumulation; conditions: 30 min postradiotracer
# Procedure: (§1) Two separate experiments each utilizing two groups of male Wistar rats (n=3) were performed. […]
# (§2) At time = 0, animals in group 1 injected intravenously with vehicle (50%)
# (§3) aq. EtOH; 0.2 ml), while animals in group 2 each received an i.v.
# (§4) injection of (dl)vesamicol. HCl (1.01 umol/Kg0). After 15 min, both group
# (§5) were injected with the radiotracer, allowed to recover and sacrificed 30
# (§6) min postradiotracer injection.
# [3] = as above; conditions: rat, iv, 2 uCi, 30 min postradiotracer
# Procedure: as §1, §2, §3, §4, §5, §6
# [4] = Tissue distribution of radiotracer in rats; conditions: for tissue uptake at 5 min / tissue uptake at 0.5 h / tissue uptake at 1 h / tissue uptake at 3 h: rat
# Procedure: Tissue Distribution Experiments
# Four groups of male Wistar rats (n=4) weighing 200-350 g were used in these experiments. Each animal received, while under ether anesthesia, an intravenous injection of the radiotracer (3-5 uCi) dissolved in 0.1 mL of 50% aqueous ethanol. At 5, 30, 60 and 180 min post-injection, blood was collected from the anesthetized animal by cardiac puncture, and the animal was immediately sacrificed by cardiectomy. The organs and tissues of interest were harvested, transferred to preweighed tubes and counted in a Beckman gamma counter. The tubes were subsequently reweighed to give the weight of the corresponding tissues. Preweighed tubes containing 1 mL samples of a 1:100 dilution of the injected dose were also counted and used as reference for calculating the tissue accumulation of radioactivity. The accumulation of radiotracer was expressed as a percentage of injected dose per gram of tissue.
# The animals were injected intravenously with 4.9 uCi of the radiotracer i
# 0.1 ml of 50% aq. EtOH.
# The animals were injected with 3.7 uCi of the radiotracer in 0.1 ml of 50
# [5] = Group 2: (dl)vesamicol.HCl 1.01 umol/Kg pretreatment
structure (smiles),measurement,setting,value
"O[C@@H]1CCN(Cc2cccc([125I])c2)C[C@H]1N1CCC(c2ccccc2)CC1 (single isomer, unassigned) [(-)-[^125 I]12h, (+)- and (-)-4-hydroxy-1-(3-[I^125]iodobenzyl)-3-(4-phenyl-piperidinyl)piperidine]","brain regional distribution: cortex, caudate-putamen, hippocampus and red nucleus",vesamicol receptor [1],high levels of radioactivity
same,levels in cortex compared with caudate-putamen,vesamicol receptor [1],slightly higher than those observed in the caudate-putamen
same,"Accumulation after pretreatment, ratio brain/blood",vesamicol receptor [2]; Group 1: vehicle pretreatment,6.45
same,"Accumulation after pretreatment, ratio heart/blood",vesamicol receptor [2]; Group 1: vehicle pretreatment,5.59
same,"Accumulation after pretreatment, ratio brain/blood",vesamicol receptor [2]; [5],2.75
same,"Accumulation after pretreatment, ratio heart/blood",vesamicol receptor [2]; [5],2.40
same,tissue uptake at 0.5 h,"[3]; blood, Group 1: vehicle pretreatment, read-out: Accumulation after pretreatment, blood",0.11 %ID/g
same,tissue uptake at 0.5 h,"[3]; blood, Group 2: (dl)vesamicol.HCl 1.01 umol/Kg pretreatment, read-out: Accumulation after pretreatment, blood",0.12 %ID/g
same,tissue uptake at 0.5 h,"[3]; brain, Group 1: vehicle pretreatment, read-out: Accumulation after pretreatment, brain",0.68 %ID/g
same,tissue uptake at 0.5 h,"[3]; brain, Group 2: (dl)vesamicol.HCl 1.01 umol/Kg pretreatment, read-out: Accumulation after pretreatment, brain",0.34 %ID/g
same,tissue uptake at 0.5 h,"[3]; gonads, Group 1: vehicle pretreatment, read-out: Accumulation after pretreatment, gonads",0.15 %ID/g
same,tissue uptake at 0.5 h,"[3]; gonads, Group 2: (dl)vesamicol.HCl 1.01 umol/Kg pretreatment, read-out: Accumulation after pretreatment, gonads",0.16 %ID/g
same,tissue uptake at 0.5 h,"[3]; heart, Group 1: vehicle pretreatment, read-out: Accumulation after pretreatment, heart",0.59 %ID/g
same,tissue uptake at 0.5 h,"[3]; heart, Group 2: (dl)vesamicol.HCl 1.01 umol/Kg pretreatment, read-out: Accumulation after pretreatment, heart",0.3 %ID/g
same,tissue uptake at 0.5 h,"[3]; kidney, Group 1: vehicle pretreatment, read-out: Accumulation after pretreatment, kidney",2.45 %ID/g
same,tissue uptake at 0.5 h,"[3]; kidney, Group 2: (dl)vesamicol.HCl 1.01 umol/Kg pretreatment, read-out: Accumulation after pretreatment, kidney",1.13 %ID/g
same,tissue uptake at 0.5 h,"[3]; liver, Group 1: vehicle pretreatment, read-out: Accumulation after pretreatment, liver",1.91 %ID/g
same,tissue uptake at 0.5 h,"[3]; liver, Group 2: (dl)vesamicol.HCl 1.01 umol/Kg pretreatment, read-out: Accumulation after pretreatment, liver",1.89 %ID/g
same,tissue uptake at 0.5 h,"[3]; lung, Group 1: vehicle pretreatment, read-out: Accumulation after pretreatment, lung",2.36 %ID/g
same,tissue uptake at 0.5 h,"[3]; lung, Group 2: (dl)vesamicol.HCl 1.01 umol/Kg pretreatment, read-out: Accumulation after pretreatment, lung",1.59 %ID/g
same,tissue uptake at 0.5 h,"[3]; muscle, Group 1: vehicle pretreatment, read-out: Accumulation after pretreatment, muscle",0.18 %ID/g
same,tissue uptake at 0.5 h,"[3]; muscle, Group 2: (dl)vesamicol.HCl 1.01 umol/Kg pretreatment, read-out: Accumulation after pretreatment, muscle",0.16 %ID/g
same,tissue uptake at 0.5 h,"[3]; spleen, Group 1: vehicle pretreatment, read-out: Accumulation after pretreatment, spleen",1.05 %ID/g
same,tissue uptake at 0.5 h,"[3]; spleen, Group 2: (dl)vesamicol.HCl 1.01 umol/Kg pretreatment, read-out: Accumulation after pretreatment, spleen",0.8 %ID/g
same,tissue uptake at 0.5 h,"[3]; thyroid, Group 1: vehicle pretreatment, read-out: Accumulation after pretreatment, thyroid",2.62 %ID/g
same,tissue uptake at 0.5 h,"[3]; thyroid, Group 2: (dl)vesamicol.HCl 1.01 umol/Kg pretreatment, read-out: Accumulation after pretreatment, thyroid",4.56 %ID/g
same,Ratio brain/blood,"[4]; 5 min, iv",4.27
same,Ratio heart/blood,"[4]; 5 min, iv",6.07
same,radioactivity in brain,"[4]; 5 min post-injection, iv",1.67 % of the injected dose
same,Ratio brain/blood,"[4]; 30 min, iv",9.06
same,Ratio heart/blood,"[4]; 30 min, iv",6.87
same,Ratio brain/blood,"[4]; 60 min, iv",8.51
same,Ratio heart/blood,"[4]; 60 min, iv",5.97
same,Ratio brain/blood,"[4]; 180 min, iv",9.87
same,Ratio heart/blood,"[4]; 180 min, iv",5.32
same,brain accumulation and retention (in words),[4]; compared with the (+)-isomer,higher accumulation and longer retention in the brain
same,tissue uptake at 5 min,"[4]; blood, 5 min, iv, read-out: Tissue distribution, blood",0.22 %ID/g
same,tissue uptake at 0.5 h,"[4]; blood, 30 min, iv, read-out: Tissue distribution, blood",0.11 %ID/g
same,tissue uptake at 1 h,"[4]; blood, 60 min, iv, read-out: Tissue distribution, blood",0.1 %ID/g
same,tissue uptake at 3 h,"[4]; blood, 180 min, iv, read-out: Tissue distribution, blood",0.1 %ID/g
same,tissue uptake at 5 min,"[4]; brain, 5 min, iv, read-out: Tissue distribution, brain",0.92 %ID/g
same,tissue uptake at 0.5 h,"[4]; brain, 30 min, iv, read-out: Tissue distribution, brain",0.99 %ID/g
same,tissue uptake at 1 h,"[4]; brain, 60 min, iv, read-out: Tissue distribution, brain",0.83 %ID/g
same,tissue uptake at 3 h,"[4]; brain, 180 min, iv, read-out: Tissue distribution, brain",0.92 %ID/g
same,tissue uptake at 5 min,"[4]; gonads, 5 min, iv, read-out: Tissue distribution, gonads",0.19 %ID/g
same,tissue uptake at 0.5 h,"[4]; gonads, 30 min, iv, read-out: Tissue distribution, gonads",0.23 %ID/g
same,tissue uptake at 1 h,"[4]; gonads, 60 min, iv, read-out: Tissue distribution, gonads",0.17 %ID/g
same,tissue uptake at 3 h,"[4]; gonads, 180 min, iv, read-out: Tissue distribution, gonads",0.2 %ID/g
